Assay results from patent US20110275638A1, “PIPERAZINE DERIVATIVES AND THEIR USE AS LEPTIN RECEPTOR MODULATORS” (priority 2008, published 2011).

Tests used:
[1] = system: JEG-3 cells; settings: Biol. Reprod. (2007) 76: 203-10; cited from earlier work
[2] = system: JEG-3 cells; experiment: [3H]-thymidine incorporation in JEG-3 cells (JEG-3 protocol); format: cell-based; settings: FIG. 4
Experimental: In JEG-3 cells (choriocarcinoma cell line) leptin is able to stimulate proliferation up to 3 fold (Biol. Reprod. (2007) 76: 203-10). […] The radioactivity incorporated by the cells is an index of their proliferative activity and is measured in counts per minute (CPM) with a liquid scintillation beta counter.
This finding can be applied to test whether a compound is able to either reproduce the effect of leptin on cell proliferation (leptin receptor agonist mimetic) (i.e., a given compound will cause an increase in incorporated [^3H]-Thymidine by the cells) or to inhibit the effect of leptin (antagonistic effect) by preventing the leptin-mediated increase in [^3H]-thymidine incorporation.

For “leptin: hormone synthesized in fat cells that is believed to act in the hypothalamus to reduce food intake and body weight”, the stimulation of proliferation [1] is listed as “up to 3 fold”, the EC50 ([2]; JEG-3 cells (choriocarcinoma cell line), read-out: EC50, increase in [3H]-thymidine incorporation) is listed as 2.1 nM and the “concentration of maximal effect on [3H]-thymidine incorporation” value ([2]; JEG-3 cells) is listed as 100 nM.
